Measurements published in patent publication US20240117303A1, “METHODS AND COMPOSITIONS FOR GENERATING HUMAN MIDBRAIN DOPAMINERGIC NEURONS FROM NEURAL PROGENITOR CELLS” (Trailhead Biosystems Inc., priority 2022, published 2024).

Legend:
[1] = test system: stage 1 neural stem cells; assay: HD-DoE 12-factor experiment for stage 2 recipe (first model, FIG. 5-7, 12); type: cell-based, human; details: for factor contribution: positive impact; for value of FOXA2 in absence of the factor / value of LMX1A in absence of the factor: stage 2 recipe, first experiment model; for value of FOXA2 in absence of the factor: 10,000 with all factors; for value of LMX1A in absence of the factor: 30,000 with all factors
From the text: To further guide the differentiation of midbrain-committed neural stem cells to neural progenitor cells at stage 2, we performed an additional HD-DoE experiment. We thereby obtained additional gene regulatory models that were used for preparation of differentiation protocol. The basis of this was a 12-factor HD-DoE experiment with focus on initiation of differentiation of cells toward midbrain neural progenitor cells for an additional 3 days after termination of stage 1 treatment. Here, we focused on expression of LMX1A and FOXA2 in neural progenitor cells with low to zero expression of GBX2. LMX1A had significant high expression level in the model with value of 47888. Therefore, we used optimization setting for this gene to identify the positive factors. The factors in this experiment included SC79, MK2206, ZM336372, PD0325901, CHIR99021, A 83-01, TTNPB, AGN193109, GW3965, SR9243, Purmorphamine and GSI-XX.
(§1) To assess the impact of elimination of each validated factor, we used dynamic profile analysis and compared the expression level of genes of interest in absence of each finalized factor while others are present.
(§2) In the stage 2 recipe, each of the six finalized factors were removed while the other five factors were present and the expression levels of FOXA2, LMX1A and GBX2 were assessed, compared to the levels in the presence of all factors. According to the first experiment model, the absence of TTNPB lead to a rise of GBX2 expression, while the value of FOXA2 and LMX1A reduced drastically from 10,000 to 0 and 30,000 to 15,000, respectively. The absence of A 83-01 reduced the expression of FOXA2 from 10,000 to 7000, however, as expected, the value of LMX1A increased from 30,000 to 40,000. […] According to the second experiment model, the absence of BMP7 and MK2206 both reduced the level of FOXA2 while increasing the value of LMX1A, with BMP7 as the main effector that led to 0 expression of FOXA2.

[2] = test system: stage 2 neural progenitors; assay: HD-DoE 12-factor model for stage 3 recipe (FIG. 19-23, 29); type: cell-based, human
From the text: To develop the neuronal differentiation recipes, the impact of various agonist and antagonists (effectors) on maturation of MB neural progenitors was investigated using the HD-DoE method described in Example 1. These effectors were chosen based on available literature on developmental biology, differentiation of stem cells as well as mouse and human single cell RNA-seq data from midbrain neurons at the time.
To engineer the recipe of stage 3 of differentiation, cells were first cultured in the stage 1 and stage 2 media as described herein, then they were treated with combinations of 8 or 12 factors for 3 days and the gene expression of cells in each condition was modeled. To guide the cells towards a subtype of midbrain dopaminergic neurons that reside in Substantia Nigra pars compacta (SNc) region of the brain, neural progenitors need to be SOX6^+ (Pereira et al. (2021) Cell Rep. 37:109975 Oosterveen et al. (2021) Stem Cell Reports 16:2718-2735 Poulin et al. (2020) Trends Neurosci. 43:155-169). CORIN, NGN2 and MSX1 are other markers involved in neurogenesis of dopaminergic neurons originating from floorplate region of developing midbrain (Wang et al. (2020) Cells 9:1489; Samata et al. (2016) Nat Commun. 7:13097; Ono et al. (2007) Development 134:3213-3225; Prakash et al. (2006) J. Physiol. 575:403410).
Therefore, we focused on maximizing expression of SOX6, CORIN, NGN2 and MSX1 in modeling experiments. One of the 12-factor models, the results of which are shown in FIG. 19, including LDN193189, AGN193109, BMP7, TTNPB, PD0325901, A8301, MHY1485, CHIR99021, XAV939, SANT-1, Purmorphamine and MK2206, provided a combination set that could maximize expression level of CORIN to more than 2000.
To assess the impact of elimination of each validated factor identified in Example 5 for the stage 3 and stage 4 recipes, we used dynamic profile analysis and compared the expression level of genes of interest in absence of each finalized factor while others are present.
In the stage 3 recipe, each of the finalized factors were removed in their respective models while other factors were present and the expression level of genes of interest was assessed compared to presence of all factors. When AGN193109 was excluded, level of all CORIN, KCNJ6, MSX1 and SOX6 decreased from 900 to 450, 50 to 35, 140 to 110 and 105 to 60, respectively. […] When PD0325901 was removed, expression levels of CORIN and KCNJ6 increased to 1200 and 70 while levels of MSX1 and SOX6 decreased to 105 and 20. In the absence of CHIR99021, the expression level of CORIN was again increased to 1200 while the level of KCNJ6 and MSX1 dropped to 50 and 115. […] Therefore, it was decided to include this compound in the final recipe. […] Therefore, CHIR99021 was also included in the final recipe.

[3] = test system: stage 1 neural stem cells; assay: HD-DoE 12-factor experiment for stage 2 recipe (second model, FIG. 8-10, 13); type: cell-based, human; details: dynamic profile, 12 effectors
Description: To test additional factors like FGF8 that is routinely used in midbrain differentiation protocols, we ran another 12-factor experiment consisting of LDN193189, BMP7, A 83-01, Activin A, Takinib, PD0325901, MK2206, FGF8b, AZD3147, MHY1485, GSI-XX and Yhhu 3792. Similar to the previous experiment, hiPSCs were treated with stage 1 media for 3 days and then treated with 96 conditions of combinations of the factors for an additional 3 days. When this model was optimized for maximum expression of FOXA2, BMP7 with factor contribution of 13.7 and MK2206 with 14.2 had the most impact on its expression followed by AZD 3147 with factor contribution of 10.9.
as §1, §2

[4] = test system: human pluripotent stem cells; assay: HD-DoE 13-factor experiment for stage 1 recipe, gene expression modeled after 3-day treatment; dynamic profile and factor criticality analysis; type: cell-based
From the text: This example utilizes a method of High-Dimensional Design of Experiments (HD-DoE), as previously described in Bukys et al. (2020) Iscience 23:101346. The method employs computerized design geometries to simultaneously test multiple process inputs and offers mathematical modeling of a deep effector/response space. The method allows for finding combinatorial signaling inputs that control a complex process, such as during cell differentiation. It allows testing of multiple plausible critical process parameters, as such parameters impact output responses, such as gene expression. Because gene expression provides hallmark features of the phenotype of, for example, a human cell, the method can be applied to identify, and understand, which signaling pathways control cell fate. In the current example, the HD-DOE method was applied with the intent to find conditions for induction of midbrain neural progenitor-expressed genes, directly from the pluripotent stem cell state.
To develop the recipe for each stage, the impact of agonists and antagonists of multiple signaling pathways (referred to herein as “effectors”) on the expression of two sets of 53 pre-selected genes after a 3-day treatment was tested and modeled. These effectors are small molecules or proteins that are commonly used during stepwise differentiation of stem cells to specific fates. The choice of the effectors to test was based on current literature on neural induction in the midbrain region of the developing brain and differentiation of stem cells to neural progenitors.
To test the effectors, experiments with at least 8 factors were designed that can assess the response of cells to 48 or more different combinations of effectors in a range of concentrations. To analyze the models, we focused on expression of genes expressed in the midbrain region, including OTX2, DMBX1, FOXA2, LMX1A, and on the absence of GBX2, which is a hindbrain marker. The impact of each effector on gene expression level is defined by a parameter called factor contribution that is calculated for each effector during the modeling.
To identify the recipe of stage 1 of differentiation, cells were treated with various effectors for 3 days and the gene expression of cells was modeled. […] This model consisted of 13 factors including LDN193189, PD173074, BLU9931, Purmorphamine, SC79, MK2206, ZM336372, PD0325901, CHIR99021, XAV939, UCLA-gp130, Tofacitinib and GO 6983.
as §1
In the stage 1 recipe, each of the five finalized factors were removed while the other four factors were present and the expression levels of OTX2, DMBX1, FOXA2 and LMX1A was assessed compared to the levels in the presence of all five factors (FIG. 11A-B). […] Expression level of DMBX1 increased in absence of LDN193189, however values of OTX2, FOXA2 and LMX1A decreased.

[5] = dynamic profile / model, 12 effectors
[6] = model maximizing expression of CORIN, positive regulatory impact

## Cc1cccc(-c2nn(C(=S)Nc3ccccc3)cc2-c2ccnc3ccccc23)n1 [A 83-01]
[1]; addition of A 83-01 at 300 nM, dynamic profile
  level of GBX2: ~0
[1]; [5]
  impact on expression of FOXA2: positive impacts
[1]; model optimized for maximum expression of FOXA2
  factor contribution: 6.7
[1]
  value of FOXA2 in absence of the factor: 7000
  value of LMX1A in absence of the factor: 40,000

## Cc1ccc(C2=CCC(C)(C)c3ccc(C#Cc4ccc(C(=O)O)cc4)cc32)cc1 [AGN193109]
[2]; dynamic profile, 12 effectors
  impact on expression of KCNJ6: positive impact
[2]; [6]
  factor contribution: 20.3
[2]; model optimized for maximum expression of KCNJ6, positive regulators
  factor contribution: 17
[2]; model optimized for maximum expression of SOX6, positive impact
  factor contribution: 26.1
[2]; stage 3 recipe, other factors present, 50 with all factors
  expression level of KCNJ6 in absence of the factor: 35
[2]; stage 3 recipe, other factors present, 105 with all factors
  expression level of SOX6 in absence of the factor: 60
[2]; stage 3 recipe, other factors present, 140 with all factors
  expression level of MSX1 in absence of the factor: 110
[2]; stage 3 recipe, other factors present, 900 with all factors
  expression level of CORIN in absence of the factor: 450
[1]; model optimized for LMX1A
  factor contribution: < 1

## C[C@H](NC(=O)Cc1cc(F)cc(F)c1)C(=O)N[C@@H]1C(=O)N(C)c2ccccc2-c2ccccc21 [GSI-XX]
[3]
  impact on expression of FOXA2: did not make a meaningful positive change
  impact on expression of LMX1A: did not make a meaningful positive change

## O=C(O)Cc1cccc(OCCCN(Cc2cccc(C(F)(F)F)c2Cl)CC(c2ccccc2)c2ccccc2)c1 [GW3965]
[1]; [5]
  impact on expression of FOXA2: positive impact
  impact on expression of LMX1A: positive impact
[1]; model optimized for LMX1A
  factor contribution: 5.4
[1]
  value of FOXA2 in absence of the factor: 17,000
  value of LMX1A in absence of the factor: 10,000

## c1ccc2c(-c3cnn4cc(-c5ccc(N6CCNCC6)cc5)cnc34)ccnc2c1 [LDN193189]
[2]; dynamic profile, 12 effectors
  impact on expression level of MSX1: high negative impact
[2]; [6]
  factor contribution: high positive factor contributions
[2]; model optimized for MSX1, negative regulatory effect
  factor contribution: 19.9
[4]; dynamic profile, 13 effectors
  impact on expression of FOXA2: positive impact
  impact on expression of OTX2: positive impact
[4]; model optimized for maximum expression of FOXA2, positive effect
  factor contribution: 13.6
[4]; model optimized for maximum expression of OTX2, positive impact, 3-day treatment
  factor contribution: 11.9
[4]; stage 1 recipe, other four factors present, 300 with all five factors
  expression level of LMX1A in absence of the factor: decreased
[4]; stage 1 recipe, other four factors present, 600 with all five factors
  expression level of FOXA2 in absence of the factor: decreased
[4]; stage 1 recipe, other four factors present, 3000 with all five factors
  expression level of DMBX1 in absence of the factor: increased
[4]; stage 1 recipe, other four factors present, 12000 with all five factors
  expression level of OTX2 in absence of the factor: decreased
